Like-named read-outs stand apart in the source and are kept apart here. No end group written: not given here.
Key:
GST-HsPRMT7 [1] = biological target: T1, GST-HsPRMT7 (Homo sapiens, UniProt Q9NVM4); test: P81 phosphocellulose filter paper methylation assay with peptide substrates (cpm, end point and time course); type: biochemical; settings: for methylation activity compared with enzyme-only control: 0-120 min time course (Fig 6); for Difference between means ± SEM vs GST-HsPRMT7 + 10 uM Hs H2B (23-37), Fig5: 10 uM peptide, 4°C
T1 construct: full-length human PRMT7 (residues 1–692); 34693; host or cells: E. coli BL21 DE3
T1 sequence (Q9NVM4 1-692): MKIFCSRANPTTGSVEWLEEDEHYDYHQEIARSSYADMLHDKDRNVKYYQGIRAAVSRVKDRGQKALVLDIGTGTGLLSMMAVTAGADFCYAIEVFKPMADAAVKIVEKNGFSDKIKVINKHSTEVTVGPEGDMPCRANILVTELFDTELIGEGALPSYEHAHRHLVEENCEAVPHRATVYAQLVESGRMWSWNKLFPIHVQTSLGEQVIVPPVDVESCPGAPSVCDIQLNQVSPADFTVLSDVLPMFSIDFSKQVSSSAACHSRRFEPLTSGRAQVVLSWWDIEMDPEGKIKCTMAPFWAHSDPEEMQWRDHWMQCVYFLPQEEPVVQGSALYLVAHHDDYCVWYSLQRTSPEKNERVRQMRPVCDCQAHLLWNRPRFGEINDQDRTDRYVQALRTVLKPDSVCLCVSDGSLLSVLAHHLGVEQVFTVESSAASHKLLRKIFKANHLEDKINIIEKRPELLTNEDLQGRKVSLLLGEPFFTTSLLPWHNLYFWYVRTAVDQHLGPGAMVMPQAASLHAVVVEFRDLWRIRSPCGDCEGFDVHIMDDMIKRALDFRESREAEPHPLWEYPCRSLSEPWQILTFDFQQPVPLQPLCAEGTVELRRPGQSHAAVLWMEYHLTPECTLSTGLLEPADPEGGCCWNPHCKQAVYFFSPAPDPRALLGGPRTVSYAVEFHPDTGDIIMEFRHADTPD
Experimental: (§1) In vitro methylation assays were performed with GST-HsPRMT7, the indicated substrate protein or peptide, and 1.4 μM S-adenosyl-L-[methyl-^3H]methionine ([^3H]-AdoMet; PerkinElmer cat no. NET155V), prepared from diluting a stock of 7.0 μM [^3H]-AdoMet (81.9 Ci/mmol, 1 mCi/mL in 9:1 10 mM H2SO4:EtOH, v/v) in 10 mM HCl. All reactions were performed using distilled water buffered with 50 mM potassium HEPES, pH 9.5 and 1 mM DTT, reaching a final reaction volume of 30 μL. The reactions were initiated by adding [^3H]-AdoMet to a final concentration of 0.14 μM. Control reactions (enzyme-only, substrate-only) contained distilled water instead of substrate or GST-HsPRMT7, respectively. After initiation with [^3H]-AdoMet, all reactions analyzed via P81 phosphocellulose filter paper assay were incubated in a water bath at 25°C unless otherwise indicated for the specified time periods and were terminated with 0.5 μL 100% (w/v) trifluoroacetic acid (TFA). P81 assays performed at t = 0 were individually terminated immediately following initiation. Samples analyzed via SDS-PAGE were incubated at 4°C for 24 hours and were quenched by adding 5x SDS sample loading buffer (250 mM Tris-HCl, pH 6.8; 10% SDS, 30% glycerol, 10% β-mercaptoethanol, 0.2% bromophenol blue), followed by heating at 97°C for 3 min.
(§2) In vitro methylation assays with GST-HsPRMT7, selected methyl-accepting substrates, and [^3H]-AdoMet were set up as described previously and performed in triplicate. Following incubation at 25°C unless otherwise indicated for the time periods specified, all samples were quenched with 0.5 μL 100% TFA and centrifuged at 9,300 g for 10 seconds in an Eppendorf centrifuge (Model 5417C). 1 cm^2 pieces of P81 phosphocellulose filter paper (LabAlley catalog no. 05-717-2A) were spotted with 25 μL from each reaction mixture and set to dry overnight. The following day, all filter paper pieces were washed three times with 50 mM sodium bicarbonate solution, pH 9.0, and dried again in liquid scintillation vials. After 5 mL of Safety Solve fluor (RPI industries) was added to each vial, [^3H] radioactivity in each sample was quantified via liquid scintillation counter (Beckman LS6500) for four total cycles at 5 minutes per sample. All data presented are expressed as averages of the cpm from cycles 2–4.
(§3) Statistical analyses were performed using the “Analyze Data” function on GraphPad Prism v.8.0.1. To determine statistical significance, unpaired homoscedastic two-tailed Student’s t tests were performed with significance level α = 0.05 with the relevant data. To obtain apparent km and Vmax values, kinetic data were analyzed by non-linear regression using the Michaelis-Menten equation.

human PRMT7 = settings: relative to unsubstituted peptide; cited from earlier work
Experimental: Comparatively, a previous study of ionic strength in human HEK293 cells estimates the intracellular concentration of potassium ions to be about 120–140 mM in human cells. As such, our results in Fig 7 led us to question whether this dramatic decrease in activity may be associated with a loss of either substrate-enzyme binding affinity or catalytic activity. || We confirm that human PRMT7 activity is quite sensitive to changes in the RXR target sequence in the substrate protein. […] The exquisite specificity of PRMT7 toward the basic RXR motif can be contrasted to the much broader speci ...

GST-HsPRMT7 [2] = biological target: T1, GST-HsPRMT7; test: Michaelis-Menten kinetics of peptide substrate methylation (P81 phosphocellulose paper assay); type: biochemical; parameters: key to Vmax, Michaelis-Menten best-fit value, Fig7 / Vmax, Michaelis-Menten best-fit value, Fig8: Vmax expressed as cpm (averages of cycles 2–4); settings: for Km / Vmax, Michaelis-Menten best-fit value, Fig7 / Vmax, Michaelis-Menten best-fit value, Fig8: 60 min, 25°C; for change of Vmax after adding 130 mM KCl: with vs without 130 mM KCl (Fig 8, Table 2), in words; for Vmax, times lower than RKR: experiments of Fig 7, relative to RKR peptide
Experimental: as §1, §2, §3

[3] = 10 μM peptide, 5 μg GST-HsPRMT7, 25°C, in words
[4] = + 130 mM KCl, 5 μg GST-HsPRMT7, 0.14 μM [3H]-AdoMet, GraphPad Prism fit, read-out: Km, Michaelis-Menten best-fit value, Fig8
[5] = +130 mM KCl, apparent km, 5 μg GST-HsPRMT7, various peptide concentrations, 0.14 μM [3H]-AdoMet, pH 9.5, Michaelis-Menten fit, triplicates (Fig 8), read-out: km
[6] = no added salt, 5 μg GST-HsPRMT7, 0.14 μM [3H]-AdoMet, GraphPad Prism fit
[7] = no added salt, 5 μg GST-HsPRMT7, 0.14 μM [3H]-AdoMet, GraphPad Prism fit, read-out: Km, Michaelis-Menten best-fit value, Fig7
[8] = no added salt, apparent km of peptide substrate, 5 μg GST-HsPRMT7, various peptide concentrations, 0.14 μM [3H]-AdoMet, pH 9.5, Michaelis-Menten fit, triplicates (Fig 8), read-out: km
[9] = no salt, 5 μg GST-HsPRMT7, 0.14 μM [3H]-AdoMet, GraphPad Prism fit
[10] = no salt, 5 μg GST-HsPRMT7, 0.14 μM [3H]-AdoMet, GraphPad Prism fit, read-out: Km, Michaelis-Menten best-fit value, Fig8
[11] = from Table 2, no added salt, response to reviewers, RGG peptide apparently = Mono R
[12] = no added salt, 5 μg GST-HsPRMT7, 0.14 μM [3H]-AdoMet, experiments of Fig 7, read-out: apparent km (binding affinities), Fig 7

Row | Substance | Km (GST-HsPRMT7 [2]; [4]) | Km (GST-HsPRMT7 [2]; [5]) | Vmax, Michaelis-Menten best-fit value, Fig7 (GST-HsPRMT7 [2]; [6]) | Km (GST-HsPRMT7 [2]; [7]) | Km (GST-HsPRMT7 [2]; [8]) | Vmax, Michaelis-Menten best-fit value, Fig8 (GST-HsPRMT7 [2]; [9]) | Km (GST-HsPRMT7 [2]; [10]) | change of Vmax after adding 130 mM KCl (GST-HsPRMT7 [2]) | other results
1 | KKDGKKRRKSRKESY [Xl H2B (23–37), synthetic peptide of amino acids 23–37 of Xenopus laevis histone H2B, containing 29-RRKSR-33] | – | – | – | – | – | – | – | – | GST-HsPRMT7 methylation activity (GST-HsPRMT7 [1]; 10 μM peptide, 5 μg GST-HsPRMT7, 0.14 μM [3H]-AdoMet, 40 min, 25°C (Fig 3), in words): no significant methylation activity over background; methylation activity compared with enzyme-only control (GST-HsPRMT7 [1]; [3]): low methylation activity but was significantly above control; methylation by human PRMT7 (GST-HsPRMT7 [1]; 10 and 50 μM peptide, 5 μg GST-HsPRMT7, 25°C, 0-3 h time course (Fig 4), in words): methylated by human PRMT7, albeit at low levels; Mean of GST-HsPRMT7 + peptide, Fig3 (GST-HsPRMT7 [1]; mean of n = 3, 10 μM peptide, 40 min, 25°C): 98.42 cpm; Difference between means ± SEM vs peptide only, Fig3 (GST-HsPRMT7 [1]; n = 3, 10 μM peptide, 40 min, 25°C, SEM): 28.16 ± 17.00 cpm
2 | R33K: human histone H2B (23–37) peptide with R33K substitution, from ref 11 (KKDGKKRKRSKKESY; not fully specified (N-terminus, C-terminus); UniProt P62807 24-38, looked up, variant R33K) | – | – | – | – | – | – | – | – | PRMT7 activity with substituted human histone H2B (23–37) peptides (human PRMT7): at least a two-thirds reduction
3 | Ac-KKGGRGRGGKKY-NH2 [synthetic peptide with an RGR motif flanked by glycine and lysine residues] | 6.21 µM | 6.2 µM | 1036 | 0.682 µM | 0.7 µM | 2435 | 0.743 µM | up to an approximately three-fold decrease | Vmax relative to the RGG peptide (GST-HsPRMT7 [2]; [11]): about 2.5 fold; apparent km relative to the RGG peptide (GST-HsPRMT7 [2]; [11]): about half; methylation activity (maximum value) (GST-HsPRMT7 [1]; 10 μM peptide, 5 μg GST-HsPRMT7, 0.14 μM [3H]-AdoMet, 25°C, t = 120 min (Fig 6), approximate): about 800 cpm; decrease of PRMT7 activity relative to human H2B (23–37) (GST-HsPRMT7 [1]; 10 μM peptide, 5 μg GST-HsPRMT7, 0.14 μM [3H]-AdoMet, 20 h, 4°C (Fig 5)): 4 to 5 fold; Difference between means ± SEM vs GST-HsPRMT7 + 10 uM Hs H2B (23-37), Fig5 (GST-HsPRMT7 [1]; 20 h, n = 3, SEM): -2852 ± 662.1 cpm
4 | Ac-KKGGRGGGGKKY-NH2 [Mono R, synthetic peptide with a single arginine flanked by glycine and lysine residues] | 0.28 µM | – | 262.6 | 0.223 µM | 1.4 µM | 993.4 | 1.42 µM | – | Vmax, times lower than RKR (GST-HsPRMT7 [2]): 5–6 times; Km (GST-HsPRMT7 [2]; [12]): 1.4 µM; PRMT7 methylation activity (GST-HsPRMT7 [1]; 10 μM peptide, 5 μg GST-HsPRMT7, 0.14 μM [3H]-AdoMet, 20 h, 4°C (Fig 5), in words): barely detectable over the PRMT7-only control; methylation activity compared with enzyme-only control (GST-HsPRMT7 [1]; [3]): not significantly greater than control; Difference between means ± SEM vs GST-HsPRMT7 + 10 uM Hs H2B (23-37), Fig5 (GST-HsPRMT7 [1]; 20 h, n = 3, SEM): -4140 ± 625.1 cpm
5 | Ac-KKGGRGRKGKKY-NH2 [synthetic RXR peptide with an additional lysine after the RGR motif] | 2.43 µM | 2.4 µM | 1042 | 0.5 µM | 0.5 µM | 969.7 | 0.514 µM | up to an approximately three-fold decrease | –

The next lines start with results.

Row | Km (GST-HsPRMT7 [2]; [4]) | Km (GST-HsPRMT7 [2]; [5]) | Vmax, Michaelis-Menten best-fit value, Fig7 (GST-HsPRMT7 [2]; [6]) | Km (GST-HsPRMT7 [2]; [7]) | Km (GST-HsPRMT7 [2]; [8]) | Vmax, Michaelis-Menten best-fit value, Fig8 (GST-HsPRMT7 [2]; [9]) | Km (GST-HsPRMT7 [2]; [10]) | Substance | change of Vmax after adding 130 mM KCl (GST-HsPRMT7 [2]) | other results
6 | 6.88 µM | 6.9 µM | 1749 | 0.759 µM | 0.6 µM | 1716 | 0.553 µM | Ac-KKGGRKRGGKKY-NH2 [synthetic RXR peptide with lysine within the motif] | up to an approximately three-fold decrease | –
7 | – | – | 299.5 | 0.192 µM | 2.8 µM | 752.7 | 2.79 µM | Ac-KKGGRERGGKKY-NH2 [synthetic RXR peptide with glutamate within the motif] | – | Vmax, times lower than RKR (GST-HsPRMT7 [2]): 5–6 times; Km (GST-HsPRMT7 [2]; [12]): 2.8 µM
8 | 3.35 µM | 3.3 µM | 1553 | 0.895 µM | 0.6 µM | 1150 | 0.601 µM | Ac-KKGKRGRGGKKY-NH2 [synthetic RXR peptide with an additional lysine before the RGR motif] | up to an approximately three-fold decrease | –
